Assay: Case report: subject, under treatment for uneasiness, short temper and prolonged anger
Assay type: in vivo, human
Conditions: while taking welbutrin, before the butyrate
From the text: A subject was under treatment for uneasiness, short temper and prolonged anger, and was taking welbutrin.

CC(NC(C)(C)C)C(=O)c1cccc(Cl)c1 (stereo not shown) [welbutrin, 1-(3-chlorophenyl)-2-[(1,1-dimethylethyl)amino]-1-propanone]
side effects suffered under prior treatment: stomach discomfort, memory deficiency and reduced clarity of thought
